Tests used:
[1] = tested on: oval-leafed pondweed; test: Test Example 2: herbicidal activity, application during weed generation under submerged conditions (Table 17, symbol C); format: in vivo, oval-leafed pondweed (Monochoria vaginalis); settings: AAH 320 g/ha; application during weed generation, submerged conditions
Method in brief: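 Herbicide emulsion, diluted with water to the chosen amount, is applied onto 4 cm floodwater over alluvial soil where the weeds were co-sown and raised at 25–30° C. Application timing: 1–2 leaves. Assessment: three weeks afterwards.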

[2] = tested on: oval-leafed pondweed; test: Test Example 1: herbicidal activity, application before weed generation under submerged conditions (Table 16, symbol C); format: in vivo, oval-leafed pondweed (Monochoria vaginalis); settings: amount of applied herbicide 320 g/ha
Method in brief: (§1)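 Alluvial soil was flooded to 4 cm depth, weed seeds were sown mixed and 2.5-leaf rice seedlings were transplanted. On sowing day, the compound's emulsion, diluted in water to a set dose, was applied to the water surface. Plants grew at 25–30 °C and were scored 0–5 after three weeks.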

[3] = tested on: windgrass; test: Test Example 4: herbicidal effect by soil treatment (Table 19, symbol L); format: in vivo, windgrass (Apera spica-venti); settings: amount of applied herbicide 320 g/ha
Method in brief: (§2)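 Herbicidal effect was rated 3 weeks after treatment, using the scoring criteria of an earlier test. The compound, formulated as an emulsion and diluted in water to a set herbicide amount, had been sprayed uniformly on soil over freshly sown seeds. Growth took place in a greenhouse at 25° C. to 30° C.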

[4] = tested on: southern crabgrass; test: Test Example 5: herbicidal effect by foliage application, plastic box (Table 20, symbol F); format: in vivo, southern crabgrass (Digitaria ciliaris); settings: 320 g/ha; for F: southern crabgrass, herbicidal effect grade: foliage application, three weeks after application
Method in brief: (§3)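 Foliar spray test: emulsion formulation diluted in water to a set application rate, sprayed onto 14-day-old plants raised in diluvial soil at 25° C to 30° C under glass. Both herbicidal effect and crop effect rated visually three weeks later.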

[5] = tested on: redroot pigweed; test: Test Example 4: herbicidal effect by soil treatment (Table 19, symbol N); format: in vivo, redroot pigweed (Amaranthus retroflexus); settings: amount of applied herbicide 320 g/ha
Method in brief: as §2

[6] = tested on: persian speedwell; test: Test Example 4: herbicidal effect by soil treatment (Table 19, symbol R); format: in vivo, Persian speedwell (Veronica persica); settings: amount of applied herbicide 320 g/ha
Method in brief: as §2

[7] = tested on: windgrass; test: Test Example 5: herbicidal effect by foliage application, plastic box (Table 20, symbol L); format: in vivo, windgrass (Apera spica-venti); settings: 320 g/ha; for L: windgrass, herbicidal effect grade: foliage application, three weeks after application
Method in brief: as §3

[8] = tested on: southern crabgrass; test: Test Example 4: herbicidal effect by soil treatment (Table 19, symbol F); format: in vivo, southern crabgrass (Digitaria ciliaris); settings: amount of applied herbicide 320 g/ha
Method in brief: as §2

[9] = tested on: green foxtail; test: Test Example 5: herbicidal effect by foliage application, plastic box (Table 20, symbol G); format: in vivo, green foxtail (Setaria viridis); settings: 320 g/ha; for G: green foxtail, herbicidal effect grade: foliage application, three weeks after application
Method in brief: as §3

[10] = tested on: Chinese sprangletop; test: Test Example 3: herbicidal effect by foliage application, Wagner pot (Table 18, symbol D); format: in vivo, chinese sprangletop (Leptochloa chinensis); settings: 320 g/ha
Method in brief: (§4)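 Plants were sown in alluvial soil held under 0.1–0.5 cm standing water and grown 14 days in a greenhouse at 25–30 °C. An emulsifiable formulation, water-diluted to the set dose, was then sprayed onto the foliage, and effects were scored three weeks later using previously defined criteria.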

[11] = tested on: Japanese bulrush; test: Test Example 1: herbicidal activity, application before weed generation under submerged conditions (Table 16, symbol B); format: in vivo, Japanese bulrush (Schoenoplectus juncoides); settings: amount of applied herbicide 320 g/ha
Method in brief: as §1

[12] = tested on: wild oat; test: Test Example 5: herbicidal effect by foliage application, plastic box (Table 20, symbol I); format: in vivo, wild oat (Avena fatua); settings: 320 g/ha; for I: wild oat, herbicidal effect grade: foliage application, three weeks after application
Method in brief: as §3

[13] = tested on: rice flat sedge; test: Test Example 3: herbicidal effect by foliage application, Wagner pot (Table 18, symbol E); format: in vivo, rice flat sedge (Cyperus iria); settings: 320 g/ha
Method in brief: as §4

[14] = tested on: lambsquarters; test: Test Example 5: herbicidal effect by foliage application, plastic box (Table 20, symbol O); format: in vivo, lambsquarters (Chenopodium album); settings: 320 g/ha; for O: lambsquarters, herbicidal effect grade: foliage application, three weeks after application
Method in brief: as §3

[15] = tested on: late watergrass; test: Test Example 1: herbicidal activity, application before weed generation under submerged conditions (Table 16, symbol A); format: in vivo, late watergrass (Echinochloa oryzicola); settings: amount of applied herbicide 320 g/ha
Method in brief: as §1

[16] = tested on: barnyard grass; test: Test Example 5: herbicidal effect by foliage application, plastic box (Table 20, symbol H); format: in vivo, barnyard grass (Echinochloa crus-galli); settings: 320 g/ha; for H: barnyard grass, herbicidal effect grade: foliage application, three weeks after application
Method in brief: as §3

[17] = foliage application after 14-day growth, evaluated three weeks after application

| Compound | herbicidal effect rating, C: oval-leafed pondweed [1] | Herbicidal effect, C: oval-leafed pondweed [2] | L: windgrass, herbicidal effect grade [3] | F: southern crabgrass, herbicidal effect grade [4] | N: redroot pigweed, herbicidal effect grade [5] | R: persian speedwell, herbicidal effect grade [6] | L: windgrass, herbicidal effect grade [7] | F: southern crabgrass, herbicidal effect grade [8] | G: green foxtail, herbicidal effect grade [9] | herbicidal effect on Chinese sprangletop (D) [10] | Herbicidal effect, B: Japanese bulrush [11] | I: wild oat, herbicidal effect grade [12] | herbicidal effect on rice flat sedge (E) [13] | O: lambsquarters, herbicidal effect grade [14] | Herbicidal effect, A: late watergrass [15] | H: barnyard grass, herbicidal effect grade [16] | further results |
| --- | --- | --- | --- | --- | --- | --- | --- | --- | --- | --- | --- | --- | --- | --- | --- | --- | --- |
| C=CCOc1ccc2c(-c3c(O)c(C)nn(C)c3=O)c(-c3ccccc3OC)sc2c1 [3-111] | 3 (Herbicidal rate of 40% or more and less than 70%) | 5 (Herbicidal rate of 90% or more (almost completely withered)) | 0 (Herbicidal rate of 5% or less (almost no effect)) | 5 (Herbicidal rate of 90% or more (almost completely withered)) | 5 (Herbicidal rate of 90% or more (almost completely withered)) | 5 (Herbicidal rate of 90% or more (almost completely withered)) | 5 (Herbicidal rate of 90% or more (almost completely withered)) | 5 (Herbicidal rate of 90% or more (almost completely withered)) | 5 (Herbicidal rate of 90% or more (almost completely withered)) | 3 (Herbicidal rate of 40% or more and less than 70%) | 5 (Herbicidal rate of 90% or more (almost completely withered)) | 4 (Herbicidal rate of 70% or more and less than 90%) | 5 (Herbicidal rate of 90% or more (almost completely withered)) | 5 (Herbicidal rate of 90% or more (almost completely withered)) | 5 (Herbicidal rate of 90% or more (almost completely withered)) | 5 (Herbicidal rate of 90% or more (almost completely withered)) |  |
| COc1ccccc1-c1sc2cc(OCC(F)F)ccc2c1-c1c(O)c(C)nn(C)c1=O [3-114] | 5 (Herbicidal rate of 90% or more (almost completely withered)) | 5 (Herbicidal rate of 90% or more (almost completely withered)) | 5 (Herbicidal rate of 90% or more (almost completely withered)) | 5 (Herbicidal rate of 90% or more (almost completely withered)) | 5 (Herbicidal rate of 90% or more (almost completely withered)) | 5 (Herbicidal rate of 90% or more (almost completely withered)) | 5 (Herbicidal rate of 90% or more (almost completely withered)) | 4 (Herbicidal rate of 70% or more and less than 90%) | 5 (Herbicidal rate of 90% or more (almost completely withered)) | 4 (Herbicidal rate of 70% or more and less than 90%) | 5 (Herbicidal rate of 90% or more (almost completely withered)) | 5 (Herbicidal rate of 90% or more (almost completely withered)) | 5 (Herbicidal rate of 90% or more (almost completely withered)) | 5 (Herbicidal rate of 90% or more (almost completely withered)) | 5 (Herbicidal rate of 90% or more (almost completely withered)) | 5 (Herbicidal rate of 90% or more (almost completely withered)) |  |
| CCOc1ccccc1-c1sc2cc(OCCOC)ccc2c1-c1c(O)c(C)nn(C)c1=O [3-123] | 2 (Herbicidal rate of 20% or more and less than 40%) | 5 (Herbicidal rate of 90% or more (almost completely withered)) | 5 (Herbicidal rate of 90% or more (almost completely withered)) | 5 (Herbicidal rate of 90% or more (almost completely withered)) | 5 (Herbicidal rate of 90% or more (almost completely withered)) | 5 (Herbicidal rate of 90% or more (almost completely withered)) | 5 (Herbicidal rate of 90% or more (almost completely withered)) | 5 (Herbicidal rate of 90% or more (almost completely withered)) | 5 (Herbicidal rate of 90% or more (almost completely withered)) | 5 (Herbicidal rate of 90% or more (almost completely withered)) | 5 (Herbicidal rate of 90% or more (almost completely withered)) | 5 (Herbicidal rate of 90% or more (almost completely withered)) | 5 (Herbicidal rate of 90% or more (almost completely withered)) | 5 (Herbicidal rate of 90% or more (almost completely withered)) | 5 (Herbicidal rate of 90% or more (almost completely withered)) | 5 (Herbicidal rate of 90% or more (almost completely withered)) |  |
| COc1ccccc1-c1sc2cc(OCCSC)ccc2c1-c1c(O)c(C)nn(C)c1=O [3-125] | 3 (Herbicidal rate of 40% or more and less than 70%) | 1 (Herbicidal rate of 5% or more and less than 20%) | 3 (Herbicidal rate of 40% or more and less than 70%) | 5 (Herbicidal rate of 90% or more (almost completely withered)) | 5 (Herbicidal rate of 90% or more (almost completely withered)) | 5 (Herbicidal rate of 90% or more (almost completely withered)) | 5 (Herbicidal rate of 90% or more (almost completely withered)) | 3 (Herbicidal rate of 40% or more and less than 70%) | 5 (Herbicidal rate of 90% or more (almost completely withered)) | 3 (Herbicidal rate of 40% or more and less than 70%) | 3 (Herbicidal rate of 40% or more and less than 70%) | 5 (Herbicidal rate of 90% or more (almost completely withered)) | 5 (Herbicidal rate of 90% or more (almost completely withered)) | 4 (Herbicidal rate of 70% or more and less than 90%) | 3 (Herbicidal rate of 40% or more and less than 70%) | 3 (Herbicidal rate of 40% or more and less than 70%) |  |
| COc1ccc2c(-c3c(OC(=O)c4ccccc4OC)c(C)nn(C)c3=O)c(-c3ccccc3OC)sc2c1 [3-158] | 5 (Herbicidal rate of 90% or more (almost completely withered)) | 5 (Herbicidal rate of 90% or more (almost completely withered)) |  |  |  |  |  |  |  | 3 (Herbicidal rate of 40% or more and less than 70%) | 5 (Herbicidal rate of 90% or more (almost completely withered)) |  | 4 (Herbicidal rate of 70% or more and less than 90%) |  | 5 (Herbicidal rate of 90% or more (almost completely withered)) |  | Herbicidal effect by soil treatment, L: windgrass [3]: 0 (Herbicidal rate of 5% or less (almost no effect)); herbicidal effect on F: southern crabgrass (evaluation grade 0-5) [4, 17]: 5 (Herbicidal rate of 90% or more (almost completely withered)); Herbicidal effect by soil treatment, N: redroot pigweed [5]: 2 (Herbicidal rate of 20% or more and less than 40%); Herbicidal effect by soil treatment, R: persian speedwell [6]: 0 (Herbicidal rate of 5% or less (almost no effect)); herbicidal effect on L: windgrass (evaluation grade 0-5) [7, 17]: 5 (Herbicidal rate of 90% or more (almost completely withered)); Herbicidal effect by soil treatment, F: southern crabgrass [8]: 0 (Herbicidal rate of 5% or less (almost no effect)); herbicidal effect on G: green foxtail (evaluation grade 0-5) [9, 17]: 5 (Herbicidal rate of 90% or more (almost completely withered)); herbicidal effect on I: wild oat (evaluation grade 0-5) [12, 17]: 3 (Herbicidal rate of 40% or more and less than 70%); herbicidal effect on O: lambsquarters (evaluation grade 0-5) [14, 17]: 5 (Herbicidal rate of 90% or more (almost completely withered)); herbicidal effect on H: barnyard grass (evaluation grade 0-5) [16, 17]: 5 (Herbicidal rate of 90% or more (almost completely withered)) |

Source: patent publication US20230085307A1, “PYRIDAZINONE COMPOUND AND HERBICIDE” (NISSAN CHEMICAL CORPORATION, priority 2019, published 2023)
